We go through 1 molecule from patent US20250361226A1, “PHARMACEUTICALLY ACCEPTABLE SALT OF BENZO[C]CHROMAN COMPOUND AND P[…] AND USE OF PHARMACEUTICALLY ACCEPTABLE SALT” (REISTONE BIOPHARMA COMPANY LIMITED, priority 2022, published 2025).

Data set [1] in a line: Dynamic vapor sorption (DVS) with XRPD before and after. It is filed as physicochemical. Here is the method: (§1) Test conditions for the instruments used in experiments of the present disclosure: • 1. X-ray Powder Diffraction, XRPD • Instrument type: Malver Panalytical Aeris X-ray powder diffractometer • Ray: monochromatic Cu—Kα ray (λ=1.54188) • Scanning mode: θ/2θ, Scanning range (2θ range): 3.5-50° • Voltage: 40 kV, Electric current: 15 mA • 2. Differential Scanning calorimetry, DSC • Instrument type: TA DSC250 • Purge gas: Nitrogen; Nitrogen purge rate: 50 mL/min • Heating rate: 10° C./min • Temperature range: 25° C.-250° C. • 3. Thermogravimetric Analysis, TGA • Instrument type: TA TGA550 • Purge gas: Nitrogen; Nitrogen purge rate: 20 ml/min • Scanning rate: 10° C./min • Temperature range: 30° C.-350° C. • 4. Dynamic vapor sorption (DVS) • Using SMS Intrinsic PLUS, the detection is performed at 25° C., with humidity change of 50%-0%-90% with a step size of 10%, in which the criteria for judging is that the mass change dM/dT for each gradient is less than 0.002%, TMAX is 360 min, and two cycles are performed. • 5. High performance liquid chromatography (HPLC) described in the stability test of the crystal form A of the present disclosure is determined on Agilent 1260 Infinity II.
During the humidity change of 0%-90% RH, the desorption process of the sample coincides with the adsorption process thereof.

A short description of data set [2]: Stability test (influence factor tests: light, temperature, humidity) by HPLC and XRPD. It is filed as physicochemical. Here is the method: as §1
In the content detection method by the high performance liquid chromatography described in the present disclosure, HPLC conditions are as follows: chromatographic column, Agilent Eclipse Plus C18 4.6 mm*150 mm, 3.5 μm; mobile phase, A-10 mmol/L solution of sodium dihydrogen phosphate (pH 8.0), and B-ACN; flow rate, 1.0 ml/min; wavelength, 210 nm.
In the related substances detection method by the high performance liquid chromatography described in the present disclosure, HPLC conditions are as follows: chromatographic column, Agilent Eclipse Plus C18 4.6 mm*150 mm, 3.5 μm; mobile phase, A-10 mmol/L solution of ammonium acetate, and B-ACN; flow rate, 1.0 ml/min; wavelength, 210 nm.
It is determined whether light, temperature and humidity have an influence on the stability of crystal form A of hydrochloride salt of the compound of formula I. The crystal form A of hydrochloride salt was placed in a stabilizing chamber in the dark and subjected to influence factor tests using a series of temperature and humidity combinations. After being placed for different days under light and various temperature and humidity conditions, the samples were taken out and compared with the initial crystal form A of hydrochloride salt. […] The samples taken out on the last day under light and various temperature and humidity conditions were subjected to XRPD detection, showing that the crystal form A of hydrochloride salt had no change and had good stability.

`Cl.N#Cc1ccc2c(c1)COc1cc(C[C@@H](C#N)NC(=O)[C@@H]3CNCCCO3)c(F)cc1-2` [Crystal form A of hydrochloride salt]: the “weight gain by hygroscopicity” value in data set [1] (DVS, 25° C., 80% RH) is “approximately 1.1%”. Also, the “crystal form before and after DVS detection (XRPD)” value in data set [1] (humidity change 0%-90% RH) was “the crystal form did not change”. The Content % in data set [2] (25° C. 92% - one week) stood at 99.37%; in data set [2] (25° C. 92% - two weeks), 99.31%; in data set [2] (40° C. 75% - one week), 99.31%; in data set [2] (40° C. 75% - two weeks), 99.32%; in data set [2] (60° C. - one week), 99.31%; in data set [2] (60° C. - two weeks), 99.33%. For the same molecule, the Content % is 99.54% in data set [2] (initial); 99.44% in data set [2] (light, 0.5 ICH); 99.32% in data set [2] (light, 1 ICH). In addition, the Isomers % in data set [2] (25° C. 92% - one week) came out at 0.63%; in data set [2] (25° C. 92% - two weeks), 0.70%; in data set [2] (40° C. 75% - one week), 0.69%; in data set [2] (40° C. 75% - two weeks), 0.68%; in data set [2] (60° C. - one week), 0.70%; in data set [2] (60° C. - two weeks), 0.67%. Besides, the Isomers % in data set [2] (initial) stood at 0.67%; in data set [2] (light, 0.5 ICH), 0.67%; in data set [2] (light, 1 ICH) it was 0.67%. The “increase in isomers of the compound of formula I versus initial (HPLC)” value in data set [2] (different days under light and various temperature and humidity conditions) is “none of them had a significant increase”. Moreover, the “crystal form by XRPD after influence factor tests” value in data set [2] (samples of the last day under light and various temperature and humidity conditions) is “had no change”.
